Results on 31 molecules are retold here after US7196110B2, “N-substituted tricyclic 3-aminopyrazoles as inhibitors for the treatment of cell proliferative disorders” (Janssen Phamaceutica N.V., priority 2002, dated 2007).

For the assay, the target named is T1, PDGF-receptor beta enzyme comprising the tyrosine kinase domain (Homo sapiens, UniProt P09619).
T1 construct: from amino acid 545 to 1106 of GenBank Access NO: AAA36427
Put plainly: Inhibition of PDGF-receptor kinase activity (cell-free, PLC1 peptide, 33P Flashplate). Format: biochemical. The note with it: for inhibition at 10 µM / Percent Inhibition @ 10 uM: compound at 10 uM; for inhibition at 10 µM: read-out: Percent Inhibition @ 10 uM. Summed up:
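The IC50 is the inhibitor level halving kinase activity relative to inhibitor-free wells, measured as 33P captured on a streptavidin-bound biotin-PLC1 peptide. The reaction ran 60 min at 30 °C in pH 8 Tris buffer with 1 mM DTT, 5 μM ATP and the 545–1106 kinase-domain enzyme.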

Setting [1] is: PDGF-R kinase activity, read-out: IC50.
Where [2] appears, read: read-out: IC50 (μM) on PDGF-R kinase activity.

Molecules are shown by their SMILES. Read-outs that look alike come from different tables or passages of the source.

T1 sequence (P09619 545-1106): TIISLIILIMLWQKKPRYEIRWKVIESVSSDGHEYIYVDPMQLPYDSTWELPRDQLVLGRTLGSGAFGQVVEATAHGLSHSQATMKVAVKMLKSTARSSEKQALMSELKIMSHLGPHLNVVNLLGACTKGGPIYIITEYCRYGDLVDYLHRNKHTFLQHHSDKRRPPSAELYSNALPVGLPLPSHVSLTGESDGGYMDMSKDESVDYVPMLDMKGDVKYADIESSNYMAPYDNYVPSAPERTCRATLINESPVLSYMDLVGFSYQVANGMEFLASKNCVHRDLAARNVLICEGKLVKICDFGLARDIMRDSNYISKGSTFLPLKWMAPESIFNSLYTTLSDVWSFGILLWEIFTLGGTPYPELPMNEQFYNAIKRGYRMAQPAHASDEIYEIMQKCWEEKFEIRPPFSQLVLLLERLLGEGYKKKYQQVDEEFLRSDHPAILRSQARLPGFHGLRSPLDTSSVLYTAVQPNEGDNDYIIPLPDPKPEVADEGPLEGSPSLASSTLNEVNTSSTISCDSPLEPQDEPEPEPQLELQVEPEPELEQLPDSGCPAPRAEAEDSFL

By inhibition is commonly meant the change of the read-out against control, counted positive when it falls. Broadly, the IC50 is the concentration needed to halve the response being measured. Regarding `CN(C)CCCOc1cccc2c1Cc1c-2n[nH]c1Nc1cccnc1` [Compound 75, [5-(3-Dimethylamino-propoxy)-2,4-dihydro-indeno[1,2-c]pyrazol-3-yl]-pyridin-3-yl-amine], the inhibition at 10 µM (PDGF-R kinase activity) was found to be 115%. Besides, the IC50 under setting [1] came to 0.575 µM.

With `COc1cc2c(cc1OC)-c1c(c(Nc3cccc(F)c3)nn1C(=O)NCCN)C2` [Compound 516, 3-(3-Fluoro-phenylamino)-6,7-dimethoxy-4H-indeno[1,2-c]pyrazole-1-carboxylic acid (2-amino-ethyl)-amide], the inhibition at 10 µM (PDGF-R kinase activity) was 68.5%. Also, the IC50 under setting [1] was 10 µM. Taken in the same sequence, the figures for `CNC(=O)CCCC(=O)n1nc(Nc2cccc(F)c2)c2c1-c1cc(OC)c(OC)cc1C2` [Compound 506, 5-[3-(3-Fluoro-phenylamino)-6,7-dimethoxy-4H-indeno[1,2-c]pyrazol-1-yl]-5-oxo-pentanoic acid methylamide] were 97% and 0.0294 µM. On to `CCOc1cc2c(cc1OCC)C(C)c1c-2n[nH]c1Nc1ccc(F)c(Cl)c1` (stereo not drawn) [Compound 347], for which, for the setting “PDGF-R kinase activity”, the inhibition at 10 µM amounted to 90.5%. The concentration for half-maximal inhibition (IC50) under setting [1] was found to be 0.545 µM. As to `CCc1ccccc1Nc1[nH]nc2c1Cc1cc(OC)c(OC)cc1-2` [Compound 58, (6,7-Dimethoxy-2,4-dihydro-indeno[1,2-c]pyrazol-3-yl)-(2-ethyl-phenyl)-amine], the inhibition at 10 µM (PDGF-R kinase activity) worked out at 40%. Further, under setting [1], the IC50 is 8.52 µM. For the molecule `CCOc1cccc(Nc2[nH]nc3c2C(CC)c2cc(OC)c(OC)cc2-3)c1` (single isomer, unassigned) [Compound 571, (3-Ethoxy-phenyl)-(4-ethyl-6,7-dimethoxy-2,4-dihydro-indeno[1,2-c]pyrazol-3-yl)-amine], for the setting “PDGF-R kinase activity”, the “Percent Inhibition @ 10 uM” value was 66%. Also, under setting [2], the IC50 worked out at 3.89 µM. Consider `CCOc1cc2c(cc1OCC)-c1n[nH]c(Nc3ccc(F)c(Cl)c3)c1C2` [Compound 246, (3-Chloro-4-fluoro-phenyl)-(6,7-dioethoxy-2,4-dihydro-indeno[1,2-c]pyrazol-3-yl)-amine], for which the inhibition at 10 µM (PDGF-R kinase activity) is 77%. Further, the concentration for half-maximal inhibition (IC50) under setting [1] stood at 0.0121 µM. For `CNC(=O)n1nc2c(c1Nc1cccc(F)c1)Cc1cc(OC)c(OC)cc1-2` [Compound 579, 3-(3-Fluoro-phenylamino)-6,7-dimethoxy-4H-indeno[1,2-c]pyrazole-2-carboxylic acid methylamide], the inhibition at 10 µM (PDGF-R kinase activity) amounted to 28%. Take `COc1cc2c(cc1OC)[C@@H](C)c1c-2n[nH]c1Nc1cccc(Br)c1` [Compound 553, (4R)-N-(3-bromo-phenyl)-(6,7-dimethoxy-4-methyl-2,4-dihydro-indeno[1,2-c]pyrazol-3-yl)-amine]: the inhibition at 10 µM (PDGF-R kinase activity) was 99.5%. Moreover, the IC50 under setting [1] was determined as 0.0065 µM. `COc1cc2c(cc1OC)-c1n[nH]c(NCCN3CCCCC3)c1C2` [Compound 81, (6,7-Dimethoxy-2,4-dihydro-indeno[1,2-c]pyrazol-3-yl)-(2-piperidin-1-yl-ethyl)-amine]: the inhibition at 10 µM (PDGF-R kinase activity) was determined as 29%. The half-inhibitory concentration (IC50) under setting [1] is 85.9 µM. Regarding `CCOc1cc2c(cc1OCC(O)CN1CCCC1)-c1n[nH]c(Nc3cccc(OC)c3)c1C2` (stereo not drawn) [Compound 462, 1-[6-Ethoxy-3-(3-methoxy-phenylamino)-2,4-dihydro-indeno[1,2-c]pyrazol-7-yloxy]-3-pyrrolidin-1-yl-propan-2-ol], under “PDGF-R kinase activity”, the inhibition at 10 µM worked out at 99%. The IC50 under setting [1] came to 0.00215 µM. Taken in the same sequence, the figures for `c1ccc(Nc2[nH]nc3c2Cc2cc(N4CCCCC4)ccc2-3)cc1` [Compound 65, Phenyl-(6-piperidin-1-yl-2,4-dihydro-indeno[1,2-c]pyrazol-3-yl)-amine] were 76% and 1.54 µM. On to `COc1cc2c(cc1OC)-c1n[nH]c(Nc3cccc(Cl)c3Cl)c1C2` [Compound 20, (2,3-Dichloro-phenyl)-(6,7-dimethoxy-2,4-dihydro-indeno[1,2-c]pyrazol-3-yl)-amine], for which the inhibition at 10 µM (PDGF-R kinase activity) was determined as 77%. For the same molecule, the IC50 under setting [1] was 1.1 µM. On to `COc1cc2c(cc1OC)-c1n[nH]c(NCC3CCCCC3)c1C2` [Compound 220, Cyclohexylmethyl-(6,7-dimethoxy-2,4-dihydro-indeno[1,2-c]pyrazol-3-yl)-amine], for which the inhibition at 10 µM (PDGF-R kinase activity) was 73%. Besides, the IC50 under setting [1] turned out to be 3.29 µM. Consider `COc1cc2c(cc1OC)-c1n[nH]c(NCc3ccc(C)c(Cl)c3)c1C2` [Compound 273, (3-Chloro-4-methyl-benzyl)-(6,7-dimethoxy-2,4-dihydro-indeno[1,2-c]pyrazol-3-yl)-amine], for which the inhibition at 10 µM (PDGF-R kinase activity) came out at 77%. Under setting [1], the half-maximal inhibitory concentration (IC50) came to 1.58 µM.

Consider `CC1c2ccccc2-c2n[nH]c(Nc3cccnc3)c21` (stereo not drawn) [Compound 109, (4-Methyl-2,4-dihydro-indeno[1,2-c]pyrazol-3-yl)-pyridin-3-yl-amine], for which, for the setting “PDGF-R kinase activity”, the inhibition at 10 µM stood at 83%. Further, the IC50 under setting [1] came out at 0.537 µM. With `COc1ccc(Nc2[nH]nc3c2Cc2cc(F)ccc2-3)cc1Cl` [Compound 288, (3-Chloro-4-methoxy-phenyl)-(6-fluoro-2,4-dihydro-indeno[1,2-c]pyrazol-3-yl)-amine], the inhibition at 10 µM (PDGF-R kinase activity) was 88.5%. Also, under setting [1], the half-maximal inhibitory concentration (IC50) is 0.219 µM. With `CCOc1cccc(Nc2[nH]nc3c2C(C)c2cc(OC)c(OC)cc2-3)c1` (single isomer, unassigned) [Compound 554, (6,7-Dimethoxy-4-methyl-2,4-dihydro-indeno[1,2-c]pyrazol-3-yl)-(3-ethoxy-phenyl)-amine], the “Percent Inhibition @ 10 uM” value (PDGF-R kinase activity) came to 102%. The IC50 under setting [1] amounted to 0.0208 µM.

For the molecule `COc1cc2c(cc1OC)-c1n[nH]c(Nc3ccc(C#N)cc3)c1C2` [Compound 59, 4-(6,7-Dimethoxy-2,4-dihydro-indeno[1,2-c]pyrazol-3-ylamino)-benzonitrile], the inhibition at 10 µM (PDGF-R kinase activity) was 71%. Moreover, the 50% inhibitory concentration (IC50) under setting [1] was 1.82 µM. For the molecule `COc1cc2c(cc1OC)-c1c(c(Nc3cccc(F)c3)nn1C(=O)NCCNCCO)C2` [Compound 523, 3-(3-Fluoro-phenylamino)-6,7-dimethoxy-4H-indeno[1,2-c]pyrazole-1-carboxylic acid [2-(2-hydroxy-ethylamino)-ethyl]-amide], the inhibition at 10 µM (PDGF-R kinase activity) is 98.5%. For the same molecule, the IC50 under setting [1] is 0.193 µM. `COc1cc2c(cc1OC)-c1nn(C(=O)NCCOCCOCCO)c(Nc3cccc(F)c3)c1C2` [Compound 604, 3-(3-Fluoro-phenylamino)-6,7-dimethoxy-4H-indeno[1,2-c]pyrazole-2-carboxylic acid {2-[2-(2-hydroxy-ethoxy)-ethoxy]-ethyl}-amide]: the inhibition at 10 µM (PDGF-R kinase activity) stood at 79.5%. The IC50 under setting [2] stood at 2.13 µM. On to `Oc1cc2c(cc1O)-c1n[nH]c(Nc3cccc(F)c3)c1C2` [Compound 362, 3-(3-Fluoro-phenylamino)-2,4-dihydro-indeno[1,2-c]pyrazole-6,7-diol], for which the inhibition at 10 µM (PDGF-R kinase activity) was 80.5%. Besides, the IC50 under setting [1] was 0.784 µM. Take `COc1cc2c(cc1OCCCN1CCN(C)CC1)Cc1c-2n[nH]c1Nc1ccc(F)c(Cl)c1` [Compound 214, (3-Chloro-4-fluoro-phenyl)-{7-methoxy-6-[3-(4-methyl-piperazin-1-yl)-propoxy]-2,4-dihydro-indeno[1,2-c]pyrazol-3-yl}-amine]: the inhibition at 10 µM (PDGF-R kinase activity) came to 46%. For the molecule `COc1cc2c(cc1OC)C(C)(C)c1c-2n[nH]c1Nc1cccc(Cl)c1` [Compound 486, (3-Chloro-phenyl)-(6,7-dimethoxy-4,4-dimethyl-2,4-dihydro-indeno[1,2-c]pyrazol-3-yl)-amine], the inhibition at 10 µM (PDGF-R kinase activity) came to 34.5%. The IC50 under setting [1] is 15.8 µM.

Regarding `CCOc1cccc(Nc2[nH]nc3c2C(C)c2cc(OCC)c(OCC)cc2-3)c1` (stereo not drawn) [Compound 504, (6,7-Diethoxy-4-methyl-2,4-dihydro-indeno[1,2-c]pyrazol-3-yl)-(3-ethoxy-phenyl)-amine], the inhibition at 10 µM (PDGF-R kinase activity) worked out at 101%. Further, the IC50 under setting [1] is 0.142 µM. In the case of `CCC1c2cc(OC)c(OC)cc2-c2nn(C(=O)COCc3ccccc3)c(Nc3cccc(Br)c3)c21` (stereo not drawn) [Compound 518, 2-Benzyloxy-1-[3-(3-bromo-phenylamino)-4-ethyl-6,7-dimethoxy-4H-indeno[1,2-c]pyrazol-2-yl]-ethanone], the inhibition at 10 µM (PDGF-R kinase activity) worked out at 92.5%. Under setting [1], the half-inhibitory concentration (IC50) was found to be 0.184 µM. On to `CNC(=S)n1nc(Nc2cccc(F)c2)c2c1-c1cc(OC)c(OC)cc1C2` [Compound 581, 3-(3-Fluoro-phenylamino)-6,7-dimethoxy-4H-indeno[1,2-c]pyrazole-1-carbothioic acid methylamide], for which the inhibition at 10 µM (PDGF-R kinase activity) is 90.5%. Also, under setting [2], the 50% inhibitory concentration (IC50) is 1.14 µM. On to `c1cncc(Nc2[nH]nc3c2Cc2cc4c(cc2-3)OCO4)c1` [Compound 126, (2,9-Dihydro-5,7-dioxa-2,3-diaza-cyclopenta[a]-s-indacen-1-yl)-pyridin-3-yl-amine], for which the inhibition at 10 µM (PDGF-R kinase activity) was determined as 65%. In addition, the IC50 under setting [1] is 0.176 µM. For the molecule `CCC1c2cc(OC)c(OC)cc2-c2[nH]nc(Nc3cccc(Br)c3)c21` (single isomer, unassigned) [Compound 483, (3-Bromo-phenyl)-(4-ethyl-6,7-dimethoxy-1,4-dihydro-indeno[1,2-c]pyrazol-3-yl)-amine], the “Percent Inhibition @ 10 uM” value (PDGF-R kinase activity) worked out at 78.5%. Further, the IC50 under setting [1] worked out at 4.97 µM. As for `COc1cc2c(cc1OCC(O)CN1CCCC1)Cc1c-2n[nH]c1NCc1ccccc1F` (stereo not drawn) [Compound 397, 1-[3-(2-Fluoro-benzylamino)-7-methoxy-2,4-dihydro-indeno[1,2-c]pyrazol-6-yloxy]-3-pyrrolidin-1-yl-propan-2-ol], under “PDGF-R kinase activity”, the inhibition at 10 µM stood at 92%. Also, the IC50 under setting [1] was 0.0077 µM. Take `CCOc1cc2c(cc1OCCCO)-c1n[nH]c(Nc3cccc(OC)c3)c1C2` [Compound 366, 3-[6-Ethoxy-3-(3-methoxy-phenylamino)-2,4-dihydro-indeno[1,2-c]pyrazol-7-yloxy]-propan-1-ol]: under “PDGF-R kinase activity”, the inhibition at 10 µM is 100%. Moreover, under setting [1], the IC50 turned out to be 0.0121 µM.
